{"source": "ChEMBL document CHEMBL5370693", "about": "“Kinases Controlling Stability of the Oncogenic MYCN Protein” (ACS Med Chem Lett, 2023)", "key": {"[1]": {"test_system": "Phosphatidylinositol 4,5-bisphosphate 3-kinase catalytic subunit alpha isoform (Homo sapiens), P42336 [M1043I]", "sequence (P42336 whole entry M1043I, canonical isoform)": "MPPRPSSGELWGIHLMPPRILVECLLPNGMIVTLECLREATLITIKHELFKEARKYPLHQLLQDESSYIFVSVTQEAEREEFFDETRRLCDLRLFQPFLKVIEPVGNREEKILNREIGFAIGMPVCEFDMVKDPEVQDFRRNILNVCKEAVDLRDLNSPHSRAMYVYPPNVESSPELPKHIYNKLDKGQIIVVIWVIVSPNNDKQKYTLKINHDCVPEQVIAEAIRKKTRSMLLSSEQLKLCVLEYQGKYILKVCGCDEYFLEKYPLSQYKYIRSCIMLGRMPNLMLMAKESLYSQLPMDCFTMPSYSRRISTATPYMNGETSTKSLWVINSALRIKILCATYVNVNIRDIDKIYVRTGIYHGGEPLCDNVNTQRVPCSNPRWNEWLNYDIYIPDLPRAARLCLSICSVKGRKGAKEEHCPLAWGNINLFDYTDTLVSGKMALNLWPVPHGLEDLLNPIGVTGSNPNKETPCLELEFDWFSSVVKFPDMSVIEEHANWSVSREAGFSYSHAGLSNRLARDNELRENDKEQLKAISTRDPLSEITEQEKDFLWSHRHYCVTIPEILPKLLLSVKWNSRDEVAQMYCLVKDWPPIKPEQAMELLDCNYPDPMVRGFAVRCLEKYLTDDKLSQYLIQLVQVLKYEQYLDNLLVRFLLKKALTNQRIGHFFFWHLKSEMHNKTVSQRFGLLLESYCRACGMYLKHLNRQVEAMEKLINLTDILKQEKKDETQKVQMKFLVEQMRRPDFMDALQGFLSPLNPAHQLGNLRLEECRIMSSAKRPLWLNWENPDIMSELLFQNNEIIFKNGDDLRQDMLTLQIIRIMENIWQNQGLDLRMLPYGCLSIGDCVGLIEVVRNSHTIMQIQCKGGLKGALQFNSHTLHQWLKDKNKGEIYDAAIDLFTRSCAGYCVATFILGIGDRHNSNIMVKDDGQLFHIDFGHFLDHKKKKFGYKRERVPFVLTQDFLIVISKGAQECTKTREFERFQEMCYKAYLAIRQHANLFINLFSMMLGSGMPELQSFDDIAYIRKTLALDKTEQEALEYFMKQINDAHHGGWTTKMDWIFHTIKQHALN", "test": "Inhibition of PIK3CA M1043I mutant (unknown origin) assessed as remaining activity at 5 uM incubated for 1 hr by KINOMEscan competitive binding assay relative to control"}, "[2]": {"test_system": "Phosphatidylinositol 4,5-bisphosphate 3-kinase catalytic subunit alpha isoform (Homo sapiens), P42336 [H1047Y]", "sequence (P42336 whole entry H1047Y, canonical isoform)": "as the sequence (P42336 whole entry M1043I, canonical isoform) above, with I1043M, H1047Y counted along it", "test": "Inhibition of PIK3CA H1047Y mutant (unknown origin) assessed as remaining activity at […] incubated for 1 hr by KINOMEscan competitive binding assay relative to control"}, "[3]": {"target": "T1, Phosphatidylinositol 3-kinase C2 domain-containing subunit gamma (Homo sapiens) (UniProt O75747)", "T1 sequence (whole entry)": "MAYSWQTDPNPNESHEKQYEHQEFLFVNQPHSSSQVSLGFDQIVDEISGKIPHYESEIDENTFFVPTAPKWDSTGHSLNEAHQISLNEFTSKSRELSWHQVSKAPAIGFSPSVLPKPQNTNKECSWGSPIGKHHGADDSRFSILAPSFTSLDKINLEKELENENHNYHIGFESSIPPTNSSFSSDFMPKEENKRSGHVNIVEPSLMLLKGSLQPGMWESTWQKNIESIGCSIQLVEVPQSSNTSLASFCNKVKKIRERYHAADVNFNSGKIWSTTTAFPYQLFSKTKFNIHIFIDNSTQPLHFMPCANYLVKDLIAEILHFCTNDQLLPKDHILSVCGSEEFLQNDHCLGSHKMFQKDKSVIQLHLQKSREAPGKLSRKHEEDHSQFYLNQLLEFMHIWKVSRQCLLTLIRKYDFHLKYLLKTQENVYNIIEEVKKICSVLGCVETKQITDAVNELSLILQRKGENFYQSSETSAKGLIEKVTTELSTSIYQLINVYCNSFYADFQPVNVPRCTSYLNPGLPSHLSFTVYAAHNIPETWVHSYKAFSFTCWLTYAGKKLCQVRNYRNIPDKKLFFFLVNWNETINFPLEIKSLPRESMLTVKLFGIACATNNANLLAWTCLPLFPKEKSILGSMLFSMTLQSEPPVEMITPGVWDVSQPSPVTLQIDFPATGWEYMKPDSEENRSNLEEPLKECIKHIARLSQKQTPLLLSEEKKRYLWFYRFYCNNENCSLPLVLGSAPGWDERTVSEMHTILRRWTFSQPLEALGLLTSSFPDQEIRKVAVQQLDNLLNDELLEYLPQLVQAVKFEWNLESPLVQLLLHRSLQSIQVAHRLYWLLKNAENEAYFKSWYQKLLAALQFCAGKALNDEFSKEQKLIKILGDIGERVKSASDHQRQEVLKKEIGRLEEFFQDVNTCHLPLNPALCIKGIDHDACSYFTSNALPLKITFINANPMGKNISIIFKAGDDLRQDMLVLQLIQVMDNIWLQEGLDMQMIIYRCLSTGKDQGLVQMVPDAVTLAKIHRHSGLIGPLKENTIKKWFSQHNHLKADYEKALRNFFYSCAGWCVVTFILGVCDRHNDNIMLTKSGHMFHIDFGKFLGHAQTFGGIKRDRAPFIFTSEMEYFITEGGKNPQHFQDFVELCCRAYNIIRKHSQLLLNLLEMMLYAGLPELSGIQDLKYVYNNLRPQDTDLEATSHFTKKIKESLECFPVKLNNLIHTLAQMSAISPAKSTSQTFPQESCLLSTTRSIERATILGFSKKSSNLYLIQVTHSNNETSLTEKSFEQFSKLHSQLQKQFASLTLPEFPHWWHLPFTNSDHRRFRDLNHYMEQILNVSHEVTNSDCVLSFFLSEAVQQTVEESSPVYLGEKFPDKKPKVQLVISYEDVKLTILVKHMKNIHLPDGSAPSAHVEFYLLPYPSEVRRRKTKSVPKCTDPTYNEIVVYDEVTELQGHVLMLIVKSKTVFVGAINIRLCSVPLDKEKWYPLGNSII", "test": "Inhibition of PIK3C2G (unknown origin) assessed as remaining activity at […] incubated for 1 hr by KINOMEscan competitive binding assay relative to control"}, "[4]": {"test_system": "Phosphatidylinositol 4,5-bisphosphate 3-kinase catalytic subunit alpha isoform (Homo sapiens), P42336 [M1043I]", "test": "Inhibition of PIK3CA M1043I mutant (unknown origin) assessed as remaining activity at 10 uM incubated for 1 hr by KINOMEscan competitive binding assay relative to control"}, "[5]": {"test_system": "Phosphatidylinositol 4,5-bisphosphate 3-kinase catalytic subunit alpha isoform (Homo sapiens), P42336 [E542K]", "sequence (P42336 whole entry E542K, canonical isoform)": "as the sequence (P42336 whole entry M1043I, canonical isoform) above, with E542K, I1043M counted along it", "test": "Inhibition of PIK3CA E542K mutant (unknown origin) assessed as remaining activity at 10 uM incubated for 1 hr by KINOMEscan competitive binding assay relative to control"}, "[6]": {"target": "T1, Phosphatidylinositol 3-kinase C2 domain-containing subunit gamma (Homo sapiens)", "test": "Inhibition of PIK3C2G (unknown origin) assessed as remaining activity at 10 uM incubated for 1 hr by KINOMEscan competitive binding assay relative to control"}}}
{"smiles": "O=c1[nH]c2ccc(Cl)cc2c(N[C@@H]2CN3CCC2CC3)c1-c1nc2ccccc2[nH]1", "values": [{"measurement": "Activity", "setting": "[1]", "result": 85, "unit": "%"}]}
{"smiles": "CC(C)=CCc1c2c(c3occ(-c4ccc(O)c(O)c4)c(=O)c3c1O)C=CC(C)(C)O2", "values": [{"measurement": "Activity", "setting": "[2]", "result": 98, "unit": "%"}, {"measurement": "Activity", "setting": "[3]", "result": 72, "unit": "%"}]}
{"smiles": "NC(=O)Nc1cc(-c2cccc(F)c2)sc1C(=O)N[C@H]1CCCNC1", "values": [{"measurement": "Activity", "setting": "[4]", "result": 79, "unit": "%"}, {"measurement": "Activity", "setting": "[5]", "result": 90, "unit": "%"}, {"measurement": "Activity", "setting": "[6]", "result": 98, "unit": "%"}]}
